Measured values published in patent US20230117680A1, “CYCLOPHILIN D INHIBITORS AND USES THEREOF” (The Broad Institute, Inc., priority 2019, published 2023).

Tests used:
Type in all cases: biochemical
Conditions in all cases: result in words
CypH = CypH (Homo sapiens, UniProt O43447); experiment: chymotrypsin coupled PPIase assay, CypH inhibition
Method: (§1) Following the synthesis of the indicated library members, in vitro inhibition (IC50) assays of these hits were conducted to obtain IC50 inhibitory data. For the IC50 assays, a chymotrypsin coupled PPIase assay using Suc-AAPF-AMC as the peptide substrate was used, whereby isomerization of a peptide substrate Suc-AAPF-AMC from the cis to trans conformation allowed for proteolysis via excess a-chymotrypsin, releasing the C-terminal coumarin fluorophore. […] Other non-inhibitor library members were also checked for binding via SPR, but produced the same profile as the prolyl isomerase assay.
(§2) Subsequently, to determine if the compounds could both access the S2 pocket and display CypD specificity, JOMBtrans and compound 49 were screened against the 10 other cyclophilins with reported prolyl isomerase activity. […] Co-crystal structures of JOMBtrans and 49 were solved with CypD. […] Three further H-bonds with the macrocycle's backbone and CypD were observed along with a cation-n interaction. […] The benzyl group on the piperidine ring altered the conformation of the macrocycle to open up two new hydrogen bonding interactions with CypD. […] This improvement in specificity compared to JOMBtrans signified that more CypD specific compounds can be garnered by derivatization into the S2 pocket.

PPWD1 = target: T1, PPWD1 (Homo sapiens, UniProt Q96BP3); experiment: chymotrypsin coupled PPIase assay, PPWD1 inhibition
T1 sequence (Q96BP3 1-646): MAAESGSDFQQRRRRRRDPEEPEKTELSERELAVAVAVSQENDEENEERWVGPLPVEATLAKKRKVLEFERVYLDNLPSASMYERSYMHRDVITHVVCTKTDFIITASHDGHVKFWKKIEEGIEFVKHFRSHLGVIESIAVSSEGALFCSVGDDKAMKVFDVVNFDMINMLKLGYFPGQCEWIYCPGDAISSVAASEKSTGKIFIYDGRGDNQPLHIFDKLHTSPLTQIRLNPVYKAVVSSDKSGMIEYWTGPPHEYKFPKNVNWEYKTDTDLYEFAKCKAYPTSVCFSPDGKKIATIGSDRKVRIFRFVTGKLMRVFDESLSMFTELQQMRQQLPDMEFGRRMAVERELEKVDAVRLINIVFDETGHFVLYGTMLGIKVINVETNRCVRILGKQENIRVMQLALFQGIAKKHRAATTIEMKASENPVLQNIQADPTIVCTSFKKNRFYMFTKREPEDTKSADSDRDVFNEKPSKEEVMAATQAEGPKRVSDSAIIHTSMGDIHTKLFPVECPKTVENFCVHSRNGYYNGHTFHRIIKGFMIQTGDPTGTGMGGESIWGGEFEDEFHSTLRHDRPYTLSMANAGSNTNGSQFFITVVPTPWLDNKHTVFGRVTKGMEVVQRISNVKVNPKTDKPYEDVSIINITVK
Method: as §1, §2

NKTR = target: T2, NKTR (Homo sapiens, UniProt P30414); experiment: chymotrypsin coupled PPIase assay, NKTR inhibition
T2 sequence (P30414 1-1462): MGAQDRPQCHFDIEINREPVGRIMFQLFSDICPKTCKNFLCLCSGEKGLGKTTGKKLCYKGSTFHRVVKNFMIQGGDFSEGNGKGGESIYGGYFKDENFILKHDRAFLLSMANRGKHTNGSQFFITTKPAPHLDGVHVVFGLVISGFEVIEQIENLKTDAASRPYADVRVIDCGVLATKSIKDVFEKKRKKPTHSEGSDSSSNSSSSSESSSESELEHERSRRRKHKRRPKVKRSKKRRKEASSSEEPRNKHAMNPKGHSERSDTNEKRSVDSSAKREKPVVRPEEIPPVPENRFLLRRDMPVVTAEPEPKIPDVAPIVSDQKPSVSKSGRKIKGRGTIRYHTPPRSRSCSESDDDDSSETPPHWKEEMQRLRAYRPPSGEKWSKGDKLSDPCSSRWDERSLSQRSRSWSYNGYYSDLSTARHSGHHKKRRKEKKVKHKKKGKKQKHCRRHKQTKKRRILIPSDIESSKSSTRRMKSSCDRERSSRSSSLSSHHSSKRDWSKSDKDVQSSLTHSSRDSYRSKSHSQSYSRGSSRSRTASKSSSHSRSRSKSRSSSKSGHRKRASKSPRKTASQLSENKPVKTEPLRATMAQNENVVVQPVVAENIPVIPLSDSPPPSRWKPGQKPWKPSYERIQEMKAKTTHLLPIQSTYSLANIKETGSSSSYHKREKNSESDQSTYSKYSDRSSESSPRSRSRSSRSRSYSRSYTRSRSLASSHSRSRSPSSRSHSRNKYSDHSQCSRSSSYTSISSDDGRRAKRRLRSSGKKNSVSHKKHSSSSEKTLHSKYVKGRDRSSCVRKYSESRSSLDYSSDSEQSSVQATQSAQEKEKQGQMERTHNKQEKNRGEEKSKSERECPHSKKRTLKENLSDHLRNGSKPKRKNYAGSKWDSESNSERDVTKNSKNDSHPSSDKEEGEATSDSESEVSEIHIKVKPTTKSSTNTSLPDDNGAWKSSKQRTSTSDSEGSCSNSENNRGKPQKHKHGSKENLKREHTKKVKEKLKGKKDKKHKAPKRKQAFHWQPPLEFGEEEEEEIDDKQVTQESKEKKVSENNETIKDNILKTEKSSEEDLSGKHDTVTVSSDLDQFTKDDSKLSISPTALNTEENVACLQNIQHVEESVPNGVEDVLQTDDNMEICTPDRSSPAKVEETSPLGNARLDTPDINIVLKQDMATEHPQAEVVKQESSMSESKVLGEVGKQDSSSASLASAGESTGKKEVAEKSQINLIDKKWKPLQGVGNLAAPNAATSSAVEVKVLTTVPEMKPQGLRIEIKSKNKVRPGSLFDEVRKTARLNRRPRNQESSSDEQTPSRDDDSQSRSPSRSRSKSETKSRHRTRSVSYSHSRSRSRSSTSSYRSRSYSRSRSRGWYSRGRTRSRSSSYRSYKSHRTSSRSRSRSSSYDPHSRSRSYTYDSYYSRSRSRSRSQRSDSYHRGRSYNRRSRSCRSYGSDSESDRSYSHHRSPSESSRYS
Method: as §1, §2

Sequence of CypH (O43447 whole entry): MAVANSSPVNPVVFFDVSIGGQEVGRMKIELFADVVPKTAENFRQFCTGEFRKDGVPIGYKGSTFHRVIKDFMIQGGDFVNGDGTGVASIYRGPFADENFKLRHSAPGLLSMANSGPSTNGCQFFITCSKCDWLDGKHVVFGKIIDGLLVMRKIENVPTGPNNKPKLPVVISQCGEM

Structure (SMILES): NCCOCCNC(=O)[C@@H]1CCNC(=O)/C=C/C(=O)N2CCC[C@H](C2)C(=O)N[C@@H](Cc2ccc(C(=O)c3ccccc3)cc2)C(=O)NCc2ccccc2CC(=O)N1 [compound 27]
- inhibition of CypH (CypH): Almost complete ablation of inhibition profiles
- inhibition of PPWD1 (PPWD1): Almost complete ablation of inhibition profiles
- inhibition of NKTR (NKTR): Almost complete ablation of inhibition profiles
